Consider four compounds from US20170274087A1, “SACCHARIDE ANALOGS AND AGENTS FOR THE DIAGNOSIS AND THERAPY OF BACTERIAL INFECTIONS” (Emory University, priority 2014, published 2017).

pEC50: −log10 of the molar value.

One data set concerns P. aeruginosa. Put plainly: P. aeruginosa growth inhibition (absorption, OD600). Type of data set: cell-based. The note with it: up to a 10 μM concentration; multidrug-resistant clinical isolate. The protocol:
TM-R and free radezolid were incubated with P. aeruginosa for 24 hours. OD600 were used to determine the bacteria growth.
P. aeruginosa (5×10^8 CFUs) were incubated with various concentrations of either radezolid or TMR and the MIC was determined via absorption measurements. The P. aeruginosa strain used in this experiment was a clinical isolate, resistant to multiple antibiotics, obtained from a blood stream infection.

For another data set, the system named is Giardia. Put plainly: Giardia growth assay in 96 well plates (coulter counter). Type of data set: cell-based. The note with it: 48 hours, 37° C., DMSO at or below 0.1%. The protocol:
Methods for evaluating EC50 measurements in Giardia were established. Giardia cells were cultured in 96 well microtiter plates in anaerobic BD Bio-Bags (Becton Dickinson). Growth was assayed with a MoxiZ coulter counter (Orflo Technologies). The TMM and metroinadazole stock solutions contained DMSO to improve solubility. Giardia growth in 96 well plates with various volumes of TYDK media 10 and DMSO concentrations were evaluated over several days at 37° C. Cells grew more consistently in higher volumes of media and noted reduced growth in DMSO concentrations above 0.25%. […] Growth was evaluated after 48 hours.

A further data set relates to maltase. Put plainly: Stability to maltase hydrolysis (glucose released). On the procedure: The stability of thiomaltose and maltose was investigated in the presence of maltase. Thiomaltose and maltose were incubated with 10 units of maltase, which is an enzyme that breaks maltose into two glucose molecules. The hydrolysis kinetics of thiomaltose and maltose was determined by quantifying the glucose released from thiomaltose or maltose hydrolysis.

Take `CC(=O)NC[C@H]1CN(c2ccc(-c3ccc(CNCc4cnn[nH]4)cc3)c(F)c2)C(=O)O1` [radezolid]: the “efficacy against P. aeruginosa growth (in words)” value in the data set on P. aeruginosa is given as “no efficacy”. A word on the pEC50: it is −log10 of the EC50, conventionally taken in molar units. Read a high pEC50 as a low EC50. For the compound `Cc1ncc([N+](=O)[O-])n1CCO` [metronidazole], in the data set with Giardia, the negative logarithm of the EC50 (pEC50) was 5.77. `OCC1OC(SC2C(CO)OC(O)C(O)C2O)C(O)C(O)C1O` (stereo not drawn) [thiomaltose]: in the data set with maltase (3 hours, 10 units of maltase), the hydrolyzed by maltase result is “less than 1%” and the “maltase hydrolysis (in words)” value is given as “negligible hydrolysis”. Broadly, the half-life is the time needed for the level to fall by half in the phase considered. Read a high half-life as slow decline. As for `OC[C@H]1O[C@H](O[C@H]2[C@H](O)[C@@H](O)[C@H](O)O[C@@H]2CO)[C@H](O)[C@@H](O)[C@@H]1O` [maltose], in the data set on maltase, the half-life is about 30 min. Besides, in the data set on maltase (3 hours, 10 units of maltase), the “maltase hydrolysis (in words)” value is “hydrolyzed completely”.
